This note sets out measurements from patent publication US8455662B2, “Formulations for benzimidazolyl pyridyl ethers” (Novartis AG, priority 2006, dated 2013).

This series in a line: Aqueous solubility of API at various pHs. Type of series: physicochemical.

A value given as a limit tells only on which side of the number the result lay.

By solubility is commonly meant how much of the substance goes into solution per volume. Read a low solubility as a poorly soluble substance. Under “aqueous medium, pH 7, aqueous buffer”, `Cn1c(Nc2ccc(C(F)(F)F)cc2)nc2cc(Oc3ccnc(-c4ncc(C(F)(F)F)[nH]4)c3)ccc21` [API, {1-methyl-5-[2-(5-trifluoromethyl-1H-imidazol-2-yl)-pyridin-4-yloxy]-1H-benzoimidazol-2-yl}-(4-trifluoromethyl-phenyl)amine] returned a solubility of under 1 µg/mL.
Consider `Cn1c(Nc2ccc(C(F)(F)F)cc2)nc2cc(Oc3ccnc(-c4ncc(C(F)(F)F)[nH]4)c3)ccc21` [{1-Methyl-5-[2-(5-trifluoromethyl-1H-imidazol-2-yl)-pyridin-4-yloxy]-1H-benzoimidazol-2-yl}-(4-trifluoromethyl-phenyl)amine], for which the Solubility in water entry (water) is “practically insoluble”.
